# Measurements published in ChEMBL document CHEMBL1909046, “DrugMatrix in vitro pharmacology data”.
# What was measured:
# [1] = DRUGMATRIX: beta-Lactamase enzyme inhibition (substrate: Nitrocefin); set-up: species or system Bacillus cereus; details: Not Active = under 50% inhibition at 10 µM
# B2 bradykinin receptor = target: T1, B2 bradykinin receptor (Homo sapiens, UniProt P30411); format: cell membranes, Membrane; details: chem-1; also: in other assays of this panel Not Active means under 50% inhibition at 10 µM
# T1 sequence (P30411 whole entry): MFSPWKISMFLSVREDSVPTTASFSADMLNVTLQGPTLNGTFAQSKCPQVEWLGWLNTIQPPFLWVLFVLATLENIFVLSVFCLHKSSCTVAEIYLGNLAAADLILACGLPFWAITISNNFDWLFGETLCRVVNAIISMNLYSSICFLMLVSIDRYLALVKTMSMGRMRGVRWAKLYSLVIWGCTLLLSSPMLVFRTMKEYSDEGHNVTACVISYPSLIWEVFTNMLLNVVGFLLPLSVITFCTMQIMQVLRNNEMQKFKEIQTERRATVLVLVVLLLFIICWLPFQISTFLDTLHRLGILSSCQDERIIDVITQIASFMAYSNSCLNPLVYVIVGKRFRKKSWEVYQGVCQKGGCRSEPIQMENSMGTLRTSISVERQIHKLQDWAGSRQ
# [2] = DRUGMATRIX: Sigma2 radioligand binding (ligand: [3H] Ifenprodil); format: cell membranes, Rattus norvegicus, Wistar, Brain, Membrane; details: Not Active = under 50% inhibition at 10 µM
# [3] = DRUGMATRIX: Tumor Necrosis Factor (TNF), Non-Selective radioligand binding (ligand: [125I] TNF-alpha); format: cell membranes, Membrane; details: u-937; Not Active = under 50% inhibition at 10 µM
# Cannabinoid receptor 1 = Cannabinoid receptor 1 (Homo sapiens, UniProt P21554); format: cell membranes, Membrane; details: chem-1; also: in other assays of this panel Not Active means under 50% inhibition at 10 µM
# Carbonic anhydrase 2 = Carbonic anhydrase 2 (Homo sapiens, UniProt P00918); assay: DRUGMATRIX: Carbonic Anhydrase II enzyme inhibition (substrate: 4-Nitrophenyl acetate (4-NPA)); format: tissue-based, Erythrocyte; details: erythrocyte; Not Active = under 50% inhibition at 10 µM
# [4] = target: Sodium-dependent dopamine transporter (Homo sapiens, UniProt Q01959); assay: DRUGMATRIX: Dopamine Transporter radioligand binding (ligand: [125I] RTI-55); format: cell membranes, CHO-K1, Membrane; details: Not Active = under 50% inhibition at 10 µM
# Leukotriene C4 synthase = target: T2, Leukotriene C4 synthase (Cavia porcellus, UniProt A6XA80); assay: biochemical; format: tissue-based, Lung;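 also: enzyme inhibition assay of leukotriene C4 synthase, using LTA4 as the substrate; in other assays of this panel Not Active means under 50% inhibition at 10 µM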
# T2 sequence (A6XA80 whole entry): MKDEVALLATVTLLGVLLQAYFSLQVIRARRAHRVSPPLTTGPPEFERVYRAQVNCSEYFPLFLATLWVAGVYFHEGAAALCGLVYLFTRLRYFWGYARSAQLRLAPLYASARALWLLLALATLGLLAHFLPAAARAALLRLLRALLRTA
# Melanocortin receptor 5 = Melanocortin receptor 5 (Homo sapiens, UniProt P33032); format: cell membranes, HEK293, Membrane; details: hek293; also: in other assays of this panel Not Active means under 50% inhibition at 10 µM
# [5] = target: T3, Nitric oxide synthase, inducible (Mus musculus, UniProt P29477); set-up: species or system Escherichia coli
# T3 sequence (P29477 whole entry): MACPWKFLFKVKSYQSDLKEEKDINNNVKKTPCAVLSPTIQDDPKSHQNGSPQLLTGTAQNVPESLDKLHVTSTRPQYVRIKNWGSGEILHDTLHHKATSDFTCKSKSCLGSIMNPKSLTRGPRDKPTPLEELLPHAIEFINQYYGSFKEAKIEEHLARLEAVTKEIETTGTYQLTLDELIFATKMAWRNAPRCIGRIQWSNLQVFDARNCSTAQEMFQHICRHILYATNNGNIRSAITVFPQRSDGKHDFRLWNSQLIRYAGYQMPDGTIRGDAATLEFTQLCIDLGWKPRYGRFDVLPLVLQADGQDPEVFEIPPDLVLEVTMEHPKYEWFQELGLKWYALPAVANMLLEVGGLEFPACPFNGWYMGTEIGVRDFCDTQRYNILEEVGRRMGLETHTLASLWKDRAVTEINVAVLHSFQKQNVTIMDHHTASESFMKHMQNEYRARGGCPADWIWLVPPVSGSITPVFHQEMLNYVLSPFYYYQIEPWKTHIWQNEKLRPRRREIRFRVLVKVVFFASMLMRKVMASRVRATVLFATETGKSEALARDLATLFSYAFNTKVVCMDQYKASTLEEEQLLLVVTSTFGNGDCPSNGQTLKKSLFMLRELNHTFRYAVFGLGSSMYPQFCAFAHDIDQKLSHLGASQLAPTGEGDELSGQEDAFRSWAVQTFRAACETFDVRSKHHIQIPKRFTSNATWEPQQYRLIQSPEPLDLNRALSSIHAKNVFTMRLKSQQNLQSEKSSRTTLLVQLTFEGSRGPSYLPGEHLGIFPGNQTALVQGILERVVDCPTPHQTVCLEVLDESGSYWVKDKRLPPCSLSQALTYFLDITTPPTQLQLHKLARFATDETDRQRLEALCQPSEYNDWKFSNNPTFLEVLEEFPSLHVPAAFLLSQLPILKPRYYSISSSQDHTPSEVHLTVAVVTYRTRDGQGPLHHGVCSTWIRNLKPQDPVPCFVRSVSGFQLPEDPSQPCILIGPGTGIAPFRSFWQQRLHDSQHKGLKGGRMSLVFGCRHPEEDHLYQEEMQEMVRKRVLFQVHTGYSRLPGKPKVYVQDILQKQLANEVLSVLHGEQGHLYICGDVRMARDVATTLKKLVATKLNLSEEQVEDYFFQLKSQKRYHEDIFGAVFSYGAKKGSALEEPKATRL
# [6] = target: Platelet-activating factor receptor (Homo sapiens, UniProt P25105); assay: biochemical; format: tissue-based; details: platelet; also: in other assays of this panel Not Active means under 50% inhibition at 10 µM
# Cathepsin G = target: T4, Cathepsin G (Homo sapiens, UniProt P08311); format: tissue-based; details: neutrophil
# T4 sequence (P08311 whole entry): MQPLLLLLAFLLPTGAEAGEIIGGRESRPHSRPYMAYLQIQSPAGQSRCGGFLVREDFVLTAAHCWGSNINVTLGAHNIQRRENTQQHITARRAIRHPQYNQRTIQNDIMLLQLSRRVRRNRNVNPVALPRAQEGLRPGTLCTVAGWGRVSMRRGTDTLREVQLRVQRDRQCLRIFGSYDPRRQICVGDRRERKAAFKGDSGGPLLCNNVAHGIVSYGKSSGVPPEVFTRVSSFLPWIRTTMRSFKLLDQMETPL
# Sequence of Cannabinoid receptor 1 (P21554 whole entry): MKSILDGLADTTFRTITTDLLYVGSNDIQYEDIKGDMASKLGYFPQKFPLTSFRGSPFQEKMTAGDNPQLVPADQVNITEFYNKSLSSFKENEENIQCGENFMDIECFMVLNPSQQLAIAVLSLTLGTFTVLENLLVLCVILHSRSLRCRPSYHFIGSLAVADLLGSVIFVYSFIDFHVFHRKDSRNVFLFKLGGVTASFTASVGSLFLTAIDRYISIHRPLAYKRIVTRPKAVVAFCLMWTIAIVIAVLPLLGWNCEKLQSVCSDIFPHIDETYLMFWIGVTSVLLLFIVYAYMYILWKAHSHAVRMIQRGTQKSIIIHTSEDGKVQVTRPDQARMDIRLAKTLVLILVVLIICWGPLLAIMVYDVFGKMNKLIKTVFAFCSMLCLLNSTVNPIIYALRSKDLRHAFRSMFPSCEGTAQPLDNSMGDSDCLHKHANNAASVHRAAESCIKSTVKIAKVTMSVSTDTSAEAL
# Sequence of Melanocortin receptor 5 (P33032 whole entry): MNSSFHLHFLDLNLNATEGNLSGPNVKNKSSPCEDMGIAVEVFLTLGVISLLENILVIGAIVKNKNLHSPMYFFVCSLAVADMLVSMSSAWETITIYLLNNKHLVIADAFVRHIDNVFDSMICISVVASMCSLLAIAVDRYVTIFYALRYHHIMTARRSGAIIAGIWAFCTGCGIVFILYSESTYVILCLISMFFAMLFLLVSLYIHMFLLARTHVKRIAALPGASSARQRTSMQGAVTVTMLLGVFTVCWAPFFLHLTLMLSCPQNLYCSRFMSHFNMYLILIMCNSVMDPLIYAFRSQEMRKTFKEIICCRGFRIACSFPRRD
# Sequence of Sodium-dependent dopamine transporter (Q01959 whole entry): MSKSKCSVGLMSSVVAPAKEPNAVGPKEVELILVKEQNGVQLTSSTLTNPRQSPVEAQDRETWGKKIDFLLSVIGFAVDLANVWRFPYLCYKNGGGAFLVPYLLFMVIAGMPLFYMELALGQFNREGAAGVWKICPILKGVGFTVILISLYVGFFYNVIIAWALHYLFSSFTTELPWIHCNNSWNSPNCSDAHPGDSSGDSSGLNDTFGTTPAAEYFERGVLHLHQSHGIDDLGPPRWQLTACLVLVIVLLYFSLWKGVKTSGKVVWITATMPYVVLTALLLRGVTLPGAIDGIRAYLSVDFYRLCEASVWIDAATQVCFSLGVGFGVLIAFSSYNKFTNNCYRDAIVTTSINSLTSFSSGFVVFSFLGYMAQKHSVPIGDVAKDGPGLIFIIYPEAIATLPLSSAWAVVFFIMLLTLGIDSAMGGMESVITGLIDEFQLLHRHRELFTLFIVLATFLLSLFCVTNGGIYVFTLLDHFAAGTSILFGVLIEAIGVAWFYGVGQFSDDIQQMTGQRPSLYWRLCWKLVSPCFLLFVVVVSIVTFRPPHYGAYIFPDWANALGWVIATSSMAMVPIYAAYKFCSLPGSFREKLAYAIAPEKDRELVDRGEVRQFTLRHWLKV
# Sequence of Platelet-activating factor receptor (P25105 whole entry): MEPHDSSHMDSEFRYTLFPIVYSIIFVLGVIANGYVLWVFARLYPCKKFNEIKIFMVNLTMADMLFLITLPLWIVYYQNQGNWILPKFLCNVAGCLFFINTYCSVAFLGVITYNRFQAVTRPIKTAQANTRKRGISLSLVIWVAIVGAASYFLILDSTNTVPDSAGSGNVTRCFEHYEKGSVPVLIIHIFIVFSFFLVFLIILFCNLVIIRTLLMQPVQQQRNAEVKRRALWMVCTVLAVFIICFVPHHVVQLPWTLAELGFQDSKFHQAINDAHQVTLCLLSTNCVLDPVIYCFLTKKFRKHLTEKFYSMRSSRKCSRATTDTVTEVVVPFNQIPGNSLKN
SMILES,IC50 [1],Ki [1],IC50 (B2 bradykinin receptor),IC50 [2],Ki [2],IC50 [3],Ki [3],IC50 (Cannabinoid receptor 1),IC50 (Carbonic anhydrase 2),IC50 ([4]; cho-k1),IC50 (Leukotriene C4 synthase),IC50 (Melanocortin receptor 5),IC50 [5],IC50 [6],IC50 (Cathepsin G),IC50 ([4]; read-out: IC50) [nM],Ki ([4]; read-out: Ki) [nM]
C=C1CC[C@H](O)C/C1=C/C=C1\CCC[C@]2(C)[C@@H]([C@H](C)/C=C/[C@H](C)C(C)C)CC[C@@H]12 [ERGOCALCIFEROL],Not Active,Not Active,Not Active,Not Active,Not Active,Not Active,Not Active,Not Active,Not Active,Not Active,Not Active,Not Active,Not Active,Not Active,Not Active,–,–
Cc1ccccc1N1CCN(CCc2nnc3n2CCCC3)CC1 [DAPIPRAZOLE],Not Active,Not Active,Not Active,Not Active,Not Active,Not Active,Not Active,Not Active,Not Active,Not Active,Not Active,Not Active,Not Active,Not Active,Not Active,–,–
CC=CC(=O)N(CC)c1ccccc1C,Not Active,Not Active,Not Active,Not Active,Not Active,Not Active,Not Active,Not Active,Not Active,Not Active,Not Active,Not Active,Not Active,Not Active,Not Active,–,–
COc1ccc(CN(CCN(C)C)c2ccccn2)cc1 [PYRILAMINE],Not Active,Not Active,Not Active,Not Active,Not Active,Not Active,Not Active,Not Active,Not Active,–,Not Active,Not Active,Not Active,Not Active,Not Active,879,699
CC[C@@]1(O)C(=O)OCc2c1cc1n(c2=O)Cc2cc3ccccc3nc2-1 [CAMPTOTHECIN],Not Active,Not Active,Not Active,Not Active,Not Active,Not Active,Not Active,Not Active,Not Active,Not Active,Not Active,Not Active,Not Active,Not Active,Not Active,–,–
CC(=O)O[C@]1(C(C)=O)CC[C@H]2[C@@H]3C=C(Cl)C4=CC(=O)CC[C@]4(C)[C@H]3CC[C@@]21C [CHLORMADINONE ACETATE],Not Active,Not Active,Not Active,Not Active,Not Active,Not Active,Not Active,Not Active,Not Active,Not Active,Not Active,Not Active,Not Active,Not Active,Not Active,–,–
C[C@]12CCC(=O)C=C1CC[C@@H]1[C@@H]2C(=O)C[C@@]2(C)[C@H]1CC[C@]2(O)C(=O)CO [CORTISONE],Not Active,Not Active,Not Active,Not Active,Not Active,Not Active,Not Active,Not Active,Not Active,Not Active,Not Active,Not Active,Not Active,Not Active,Not Active,–,–
Brc1ccccc1 [BROMOBENZENE],Not Active,Not Active,Not Active,Not Active,Not Active,Not Active,Not Active,Not Active,Not Active,Not Active,Not Active,Not Active,Not Active,Not Active,Not Active,–,–
O=C1NC(=O)C(c2ccccc2)(c2ccccc2)N1 [PHENYTOIN],Not Active,Not Active,Not Active,Not Active,Not Active,Not Active,Not Active,Not Active,Not Active,Not Active,Not Active,Not Active,Not Active,Not Active,Not Active,–,–
C=C(C)[C@@H]1[C@H]2OC(=O)[C@@H]1[C@]1(O)C[C@H]3O[C@]34C(=O)O[C@H]2[C@]14C [PICROTOXININ],Not Active,Not Active,Not Active,Not Active,Not Active,Not Active,Not Active,Not Active,Not Active,Not Active,Not Active,Not Active,Not Active,Not Active,Not Active,–,–
